The source of these data is patent US7087642B2 (priority 1999, dated 2006).

One experiment concerns human PBMC T cells. The experiment can be described thus: cells. In kind it is cell-based. The note with it: read-out: T-cells (IC50).
The next experiment concerns human PBMC B cells. The experiment in a line: cells. In kind it is cell-based. The settings on record: read-out: B-cells (IC50).
The target of the next experiment is IMPDH human type II (Homo sapiens, UniProt P12268). The experiment in a line: biochemical.

The structures appear in SMILES notation. Like-named read-outs stand apart in the source and are kept apart here.

As a reminder, the IC50 is the midpoint of a concentration-inhibition curve. In general, Ki refers to a dissociation constant, usually derived from enzyme kinetics or from competition with a known ligand. As to `COc1cc(NC(=O)Nc2cccc(CNC(=O)OC(CCN3CCOCC3)c3ccccc3)c2)ccc1-c1cnco1` (stereo not drawn) [Compound 48], the IC50 in the experiment with human PBMC T cells (Homo sapiens, 72 h) was in the range of 100 to 1000 nM; with human PBMC B cells (Homo sapiens, 72 h), 100 to 1000 nM. Besides, on IMPDH human type II (read-out: Ki), the Ki was under 10 nM.

On to `CCC(CCCCO)OC(=O)NCc1cccc(NC(=O)Nc2ccc(-c3cnco3)c(OC)c2)c1` (stereo not drawn) [Compound 49], for which the IC50 was in the range of 100 to 1000 nM in the experiment with human PBMC T cells (Homo sapiens, 72 h) and 100 to 1000 nM in the experiment on human PBMC B cells (Homo sapiens, 72 h). The Ki on IMPDH human type II (read-out: Ki) was under 10 nM.

As to `COc1cc(NC(=O)Nc2cccc(CNC(=O)OC(CCN3CCCCC3)c3ccccc3)c2)ccc1-c1cnco1` (stereo not drawn) [Compound 50], the IC50 was over 1000 nM in the experiment with human PBMC T cells (Homo sapiens, 72 h) and over 1000 nM with human PBMC B cells (Homo sapiens, 72 h). Further, at IMPDH human type II (read-out: Ki), the Ki is under 10 nM.

On to `COc1cc(NC(=O)Nc2cccc(CNC(=O)O[C@H](CN3CCOCC3)c3ccccc3)c2)ccc1-c1cnco1` [Compound 51], for which the IC50 with human PBMC T cells (Homo sapiens, 72 h) is 100 to 1000 nM; with human PBMC B cells (Homo sapiens, 72 h), 100 to 1000 nM. For the same compound, at IMPDH human type II (read-out: Ki), the inhibition constant (Ki) is under 10 nM.

Consider `COc1cc(NC(=O)Nc2cccc(CNC(=O)O[C@@H](CN3CCOCC3)c3ccccc3)c2)ccc1-c1cnco1` [Compound 52], for which the IC50 in the experiment with human PBMC T cells (Homo sapiens, 72 h) was over 1000 nM; with human PBMC B cells (Homo sapiens, 72 h), over 1000 nM. Besides, at IMPDH human type II (read-out: Ki), the Ki is under 10 nM.

As to `COc1cc(NC(=O)Nc2cccc(CNC(=O)O[C@@H](CO)CCC#N)c2)ccc1-c1cnco1` [Compound 57], the half-inhibitory concentration (IC50) fell in the range of 100 to 1000 nM in the experiment with human PBMC T cells (Homo sapiens, 72 h) and 100 to 1000 nM in the experiment on human PBMC B cells (Homo sapiens, 72 h). The Ki on IMPDH human type II (read-out: Ki) is under 10 nM.

On to `COc1cc(NC(=O)Nc2cccc(CNC(=O)OCCCOC(C)=O)c2)ccc1-c1cnco1` [Compound 58], for which the IC50 fell in the range of 100 to 1000 nM in the experiment on human PBMC T cells (Homo sapiens, 72 h) and 100 to 1000 nM in the experiment on human PBMC B cells (Homo sapiens, 72 h). Besides, at IMPDH human type II (read-out: Ki), the Ki is under 10 nM.

Take `COc1cc(NC(=O)Nc2cccc(CNC(=O)O[C@H](CO)CCC#N)c2)ccc1-c1cnco1` [Compound 59]: the IC50 was over 1000 nM in the experiment with human PBMC T cells (Homo sapiens, 72 h) and 100 to 1000 nM in the experiment on human PBMC B cells (Homo sapiens, 72 h). Moreover, the Ki on IMPDH human type II (read-out: Ki) is under 10 nM.

Take `CC[C@H](CO)OC(=O)NCc1cccc(NC(=O)Nc2ccc(-c3cnco3)c(OC)c2)c1` [Compound 60]: the IC50 lay in the range of 100 to 1000 nM with human PBMC T cells (Homo sapiens, 72 h) and 100 to 1000 nM in the experiment on human PBMC B cells (Homo sapiens, 72 h). For the same compound, on IMPDH human type II (read-out: Ki), the Ki is under 10 nM.

In the case of `CC[C@@H](CO)OC(=O)NCc1cccc(NC(=O)Nc2ccc(-c3cnco3)c(OC)c2)c1` [Compound 61], the IC50 with human PBMC T cells (Homo sapiens, 72 h) was 100 to 1000 nM; in the experiment on human PBMC B cells (Homo sapiens, 72 h), 100 to 1000 nM. On IMPDH human type II (read-out: Ki), the Ki was under 10 nM.

As to `COc1cc(NC(=O)Nc2cccc(CNC(=O)O[C@@H](CO)CC#N)c2)ccc1-c1cnco1` [Compound 62], the IC50 in the experiment on human PBMC T cells (Homo sapiens, 72 h) is 100 to 1000 nM; with human PBMC B cells (Homo sapiens, 72 h), 100 to 1000 nM. Also, the inhibition constant Ki on IMPDH human type II (read-out: Ki) was under 10 nM.

On to `COc1cc(NC(=O)Nc2cccc(CNC(=O)O[C@H](CO)CC#N)c2)ccc1-c1cnco1` [Compound 63], for which the IC50 in the experiment on human PBMC T cells (Homo sapiens, 72 h) was in the range of 100 to 1000 nM; in the experiment on human PBMC B cells (Homo sapiens, 72 h), 100 to 1000 nM. Also, the Ki on IMPDH human type II (read-out: Ki) was under 10 nM.

Regarding `CCC(CCN1CCOCC1)OC(=O)NCc1cccc(NC(=O)Nc2ccc(-c3cnco3)c(OC)c2)c1` (stereo not drawn) [Compound 65], the IC50 in the experiment with human PBMC T cells (Homo sapiens, 72 h) fell in the range of 100 to 1000 nM; in the experiment with human PBMC B cells (Homo sapiens, 72 h), 100 to 1000 nM. Also, the Ki on IMPDH human type II (read-out: Ki) is under 10 nM.

In the case of `CCN(CC)C[C@H](OC(=O)NCc1cccc(NC(=O)Nc2ccc(-c3cnco3)c(OC)c2)c1)c1ccccc1` [Compound 66], the concentration for half-maximal inhibition (IC50) is over 1000 nM in the experiment on human PBMC T cells (Homo sapiens, 72 h) and over 1000 nM in the experiment with human PBMC B cells (Homo sapiens, 72 h). Also, the Ki on IMPDH human type II (read-out: Ki) was under 10 nM.

Take `CCN(CC)C[C@@H](OC(=O)NCc1cccc(NC(=O)Nc2ccc(-c3cnco3)c(OC)c2)c1)c1ccccc1` [Compound 67]: the half-inhibitory concentration (IC50) in the experiment with human PBMC T cells (Homo sapiens, 72 h) lay within 100 to 1000 nM; in the experiment on human PBMC B cells (Homo sapiens, 72 h), 100 to 1000 nM. For the same compound, on IMPDH human type II (read-out: Ki), the Ki is under 10 nM.

Turning to `CC[C@H](CCO)OC(=O)NCc1cccc(NC(=O)Nc2ccc(-c3cnco3)c(OC)c2)c1` [Compound 68], the IC50 with human PBMC T cells and in the experiment with human PBMC B cells was 100 to 1000 nM in each case. Moreover, the Ki at IMPDH human type II (read-out: Ki) was under 10 nM.

Turning to `CC[C@@H](CCO)OC(=O)NCc1cccc(NC(=O)Nc2ccc(-c3cnco3)c(OC)c2)c1` [Compound 69], the IC50 with human PBMC T cells and with human PBMC B cells was 100 to 1000 nM each time. The Ki at IMPDH human type II (read-out: Ki) was under 10 nM.

With `COc1cc(NC(=O)Nc2cccc(CNC(=O)OC3COCC3OCC(=O)OC(C)(C)C)c2)ccc1-c1cnco1` (stereo not drawn) [Compound 70], the IC50 in the experiment with human PBMC T cells and with human PBMC B cells was over 1000 nM in each case. The Ki on IMPDH human type II (read-out: Ki) is under 10 nM.

For the compound `COc1cc(NC(=O)Nc2cccc(CNC(=O)OC3COCC3OCC(=O)O)c2)ccc1-c1cnco1` (stereo not drawn) [Compound 71], the IC50 was over 1000 nM in the experiment on human PBMC T cells (Homo sapiens, 72 h) and over 1000 nM in the experiment with human PBMC B cells (Homo sapiens, 72 h). Besides, on IMPDH human type II (read-out: Ki), the inhibition constant Ki was under 10 nM.

In the case of `COc1cc(NC(=O)Nc2cccc(CNC(=O)OC3COCC3OCC(=O)OC(C)(C)C)c2)ccc1-c1cnco1` (stereo not drawn) [Compound 72], the IC50 in the experiment with human PBMC T cells and in the experiment on human PBMC B cells was 100 to 1000 nM throughout. For the same compound, at IMPDH human type II (read-out: Ki), the Ki is under 10 nM.

Regarding `COc1cc(NC(=O)Nc2cccc(CNC(=O)OC3COCC3OCC(=O)O)c2)ccc1-c1cnco1` (stereo not drawn) [Compound 73], the IC50 with human PBMC T cells and with human PBMC B cells was over 1000 nM each time. For the same compound, the inhibition constant (Ki) at IMPDH human type II (read-out: Ki) was under 10 nM.

Consider `COc1cc(NC(=O)Nc2cccc(CNC(=O)Oc3cccc(/C=C/C(=O)OC(C)(C)C)c3)c2)ccc1-c1cnco1` [Compound 74], for which the 50% inhibitory concentration (IC50) in the experiment on human PBMC T cells (Homo sapiens, 72 h) was over 1000 nM; in the experiment with human PBMC B cells (Homo sapiens, 72 h), over 1000 nM. The compound further registered a Ki on IMPDH human type II of under 10 nM.

In the case of `COc1cc(NC(=O)Nc2cccc(CNC(=O)OC3COCC3OCC#N)c2)ccc1-c1cnco1` (stereo not drawn) [Compound 75], the IC50 with human PBMC T cells (Homo sapiens, 72 h) is 100 to 1000 nM; in the experiment with human PBMC B cells (Homo sapiens, 72 h), 100 to 1000 nM. In addition, the Ki on IMPDH human type II (read-out: Ki) is under 10 nM.

As to `COc1cc(NC(=O)Nc2cccc(CNC(=O)OC3COCC3OCC#N)c2)ccc1-c1cnco1` (stereo not drawn) [Compound 76], the IC50 in the experiment with human PBMC T cells and in the experiment with human PBMC B cells was under 100 nM in each case. Further, the inhibition constant (Ki) at IMPDH human type II (read-out: Ki) was under 10 nM.

Turning to `COc1cc(NC(=O)Nc2cccc(CNC(=O)O[C@@H]3CCN(S(=O)(=O)N(C)C)C3)c2)ccc1-c1cnco1` [Compound 77], the IC50 in the experiment on human PBMC T cells (Homo sapiens, 72 h) is 100 to 1000 nM; in the experiment on human PBMC B cells (Homo sapiens, 72 h), 100 to 1000 nM. Further, the Ki on IMPDH human type II (read-out: Ki) was under 10 nM.

In the case of `COc1cc(NC(=O)Nc2cccc(CNC(=O)O[C@@H]3C=C[C@H](OC(C)=O)C3)c2)ccc1-c1cnco1` [Compound 78], the IC50 with human PBMC T cells (Homo sapiens, 72 h) was in the range of 100 to 1000 nM; in the experiment on human PBMC B cells (Homo sapiens, 72 h), 100 to 1000 nM. Also, on IMPDH human type II (read-out: Ki), the Ki is under 10 nM.

As to `COc1cc(NC(=O)Nc2cccc(CNC(=O)OC(CC#N)C(F)(F)F)c2)ccc1-c1cnco1` (stereo not drawn) [Compound 79], the IC50 lay in the range of 100 to 1000 nM in the experiment on human PBMC T cells (Homo sapiens, 72 h) and 100 to 1000 nM in the experiment on human PBMC B cells (Homo sapiens, 72 h). Besides, at IMPDH human type II (read-out: Ki), the Ki is under 10 nM.

Consider `CCN(CC)CC(CO)OC(=O)NCc1cccc(NC(=O)Nc2ccc(-c3cnco3)c(OC)c2)c1` (stereo not drawn) [Compound 80], for which the half-inhibitory concentration (IC50) with human PBMC T cells (Homo sapiens, 72 h) lay in the range of 100 to 1000 nM; in the experiment on human PBMC B cells (Homo sapiens, 72 h), 100 to 1000 nM. In addition, the Ki at IMPDH human type II (read-out: Ki) was under 10 nM.

On to `CC[C@H](CC#N)OC(=O)NCc1cccc(NC(=O)Nc2ccc(-c3cnco3)c(OC)c2)c1` [Compound 81], for which the IC50 with human PBMC T cells (Homo sapiens, 72 h) lay within 100 to 1000 nM; in the experiment with human PBMC B cells (Homo sapiens, 72 h), 100 to 1000 nM. In addition, at IMPDH human type II (read-out: Ki), the Ki was 10 to 50 nM.

With `CC[C@@H](CC#N)OC(=O)NCc1cccc(NC(=O)Nc2ccc(-c3cnco3)c(OC)c2)c1` [Compound 82], the IC50 with human PBMC T cells (Homo sapiens, 72 h) was in the range of 100 to 1000 nM; with human PBMC B cells (Homo sapiens, 72 h), 100 to 1000 nM. Besides, the inhibitory constant (Ki) at IMPDH human type II (read-out: Ki) is over 50 nM.

Consider `CC[C@H](CCC#N)OC(=O)NCc1cccc(NC(=O)Nc2ccc(-c3cnco3)c(OC)c2)c1` [Compound 83], for which the IC50 in the experiment with human PBMC T cells (Homo sapiens, 72 h) is 100 to 1000 nM; in the experiment with human PBMC B cells (Homo sapiens, 72 h), 100 to 1000 nM. At IMPDH human type II (read-out: Ki), the inhibition constant Ki fell in the range of 10 to 50 nM.

On to `CCC(CN1CC[S+]([O-])CC1)OC(=O)NCc1cccc(NC(=O)Nc2ccc(-c3cnco3)c(OC)c2)c1` (stereo not drawn) [Compound 84], for which the IC50 in the experiment on human PBMC T cells (Homo sapiens, 72 h) is 100 to 1000 nM; with human PBMC B cells (Homo sapiens, 72 h) it was 100 to 1000 nM. The Ki on IMPDH human type II (read-out: Ki) was in the range of 10 to 50 nM.
